Drawing on BindingDB's records for doi:10.1016/S0960-894X(97)00417-4 (1997), this text covers Ki for 12 compounds.

The experiment in a line: Inhibition of [3H]pentazocine binding to Sigma opioid receptor type 1.
Take `CC1(C)C2CC[C@]1(C)CN(CCC1CCCCC1)C2` [(S)-3-(2-Cyclohexyl-ethyl)-1,8,8-trimethyl-3-aza-bicyclo[3.2.1]octane]: affinity was put at a Ki of 2.2 nM. The same measure for `CC1(C)C2CC[C@]1(C)CN(CCCCC1CCCCC1)C2` [(S)-3-(4-Cyclohexyl-butyl)-1,8,8-trimethyl-3-aza-bicyclo[3.2.1]octane]: 1.2 nM. The same measure for `CC1(C)C2CC[C@]1(C)CN(CC1CCCCC1)C2` [(S)-3-Cyclohexylmethyl-1,8,8-trimethyl-3-aza-bicyclo[3.2.1]octane]: 1.3 nM; for `CC1(C)C2CC[C@@]1(C)CN(CCC1CCCCC1)C2` [(R)-3-(2-Cyclohexyl-ethyl)-1,8,8-trimethyl-3-aza-bicyclo[3.2.1]octane]: 1.4 nM; for `CC1(C)C2CC[C@]1(C)CN(C1CCCCC1)C2` [(S)-3-Cyclohexyl-1,8,8-trimethyl-3-aza-bicyclo[3.2.1]octane]: 3 nM. With `CC1(C)C2CC[C@]1(C)CN(CCC1CCCCCC1)C2` [(S)-3-(2-Cycloheptyl-ethyl)-1,8,8-trimethyl-3-aza-bicyclo[3.2.1]octane] the figure was 2.9 nM.

As for `CC1(C)C2CC[C@]1(C)CN(CCC1CCCCCCC1)C2` [(S)-3-(2-Cyclooctyl-ethyl)-1,8,8-trimethyl-3-aza-bicyclo[3.2.1]octane], the Ki worked out at 2.9 nM. With `CC1(C)C2CC[C@]1(C)CN(CCC1C3CC4CC(C3)CC1C4)C2` (stereo partly drawn) [(S)-3-(2-Adamantan-2-yl-ethyl)-1,8,8-trimethyl-3-aza-bicyclo[3.2.1]octane] the figure was 4.3 nM; with `CC1(C)C2CC[C@@]1(C)CN(CC1CCCCC1)C2` [(R)-3-Cyclohexylmethyl-1,8,8-trimethyl-3-aza-bicyclo[3.2.1]octane], 1.1 nM. The same measure for `C=CCN1CC[C@@]2(C)c3cc(O)ccc3C[C@H]1[C@H]2C` [(1S,9S,13S)-10-allyl-1,13-dimethyl-10-azatricyclo[7.3.1.0~2,7~]trideca-2,4,6-trien-4-ol]: 157 nM. With `CC1(C)C2CC[C@]1(C)CN(CCCC1CCCCC1)C2` [(S)-3-(3-Cyclohexyl-propyl)-1,8,8-trimethyl-3-aza-bicyclo[3.2.1]octane] the figure was 2.5 nM; with `CC1(C)C2CC[C@]1(C)CN(CCC1CCCC1)C2` [(S)-3-(2-Cyclopentyl-ethyl)-1,8,8-trimethyl-3-aza-bicyclo[3.2.1]octane], 1.7 nM.

The Ki is a measure of affinity in units of concentration, obtained from inhibition or displacement. Read a low Ki as a stronger hold on the target.
